Counter-ions that a name gives are not always drawn.
The compounds below were run against T1, human glycolate oxidase (hGO) (Homo sapiens, UniProt Q9UJM8) (assay: In vitro inhibition of human glycolate oxidase (enzymatic assay, HRP-coupled Trinder reaction)). Details: not given.
T1 construct: His-tag (6 histidines, pET-15b) (N); made in house; host or cells: E. coli BL21 (DE3)
T1 sequence (Q9UJM8 1-370): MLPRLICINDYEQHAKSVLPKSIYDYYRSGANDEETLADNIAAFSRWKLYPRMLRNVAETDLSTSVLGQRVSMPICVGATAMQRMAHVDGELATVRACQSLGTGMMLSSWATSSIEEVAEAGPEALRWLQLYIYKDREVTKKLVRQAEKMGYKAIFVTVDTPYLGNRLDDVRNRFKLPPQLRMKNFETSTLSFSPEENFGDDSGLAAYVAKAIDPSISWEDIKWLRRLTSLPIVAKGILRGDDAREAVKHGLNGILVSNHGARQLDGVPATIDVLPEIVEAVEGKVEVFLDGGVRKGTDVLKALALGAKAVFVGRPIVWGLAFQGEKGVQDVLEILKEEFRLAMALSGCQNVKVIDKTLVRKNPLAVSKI
Format: biochemical
Source text: The catalytic reactions used for assaying glycolate oxidase activity in the presence of compounds according to the present disclosure are outlined in FIG. 2. Glycolate oxidase (GO)-catalyzed conversion of glycolate to glyoxylate (top reaction), with the concomitant reduction of the cofactor flavin mononucleotide (FMN), uses molecular oxygen (O2) for recovering its oxidative state, releasing hydrogen peroxide (H2O2). The Trinder reaction (bottom reaction), in which horseradish peroxidase (HRP) uses hydrogen peroxide, 4-aminoantipyrine and a phenol derivative (sulphonated DCIP) to generate a quinoneimine dye that is spectrophotometrically measured.
Human glycolate oxidase (hGO) expression. BL21 (DE3) E. coli transformed with recombinant pET-15b expression vector with the N-terminal His-tag human Hao1 cDNA was grown in LB medium in the presence of 0.1 mg/ml ampicillin. For purification of recombinant human glycolate oxidase (hGO) expressed in BL21 E. coli, bacteria pellets were thawed and re-suspended in 2 ml lysis buffer (50 mM NaH2PO4, 300 mM NaCl, 10 mM imidazole, 50 μM FMN, pH 7.5), and then treated for 30 minutes with 1 mM PMSF for protease inhibition, 0.1% Triton X-100 and 0.2 mg/ml lysozyme to break cellular membranes. After sonication, cells were centrifuged and the supernatant containing the total cellular extract (pre-column fraction) was loaded into a Ni-NTA agarose column and incubated for 30 minutes at 4° C. to allow binding of the 6 histidine tail of recombinant GO protein to the nickel ions. The column was washed with two bed volumes of lysis buffer with 20 mM imidazole to eliminate unbound proteins (wash fraction). GO was eluted using the same buffer with 300 mM imidazole. Fraction containing purified GO was dialyzed against 300 ml of dialysis buffer (50 mM NaH2PO4, 300 mM NaCl, pH 7.5) at 4° C. in agitation overnight, and then kept at 4° C. in darkness. Protein were quantified by the bicinchoninic acid (BCA) assay.
Enzymatic assays. Enzymatic activity of hGO was determined in the presence of glycolate as substrate (40 mM glycolic acid) and phosphate buffer (50 mM KPO4, 0.1 mM EDTA, pH 7). The production of glyoxylate was indirectly measured by the quantification of hydrogen peroxide formed during the first oxidation reaction. […] Enzymatic activity was calculated at 1 minute after initiation of the Trinder reaction.
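For % Inhibition in this document: values are IC50 potency bins despite the % Inhibition label.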

Compared with `O=C(O)c1nn[nH]c1Oc1ccc(Cl)c(F)c1` [Example 8, 5-(4-chloro-3-fluorophenoxy)-1H-1,2,3-triazole-4-carboxylic Acid], `O=C(O)c1nn[nH]c1Oc1ccc(Cl)cc1` [Example 36, 5-(4-chlorophenoxy)-1H-1,2,3-triazole-4-carboxylic Acid] is lower in IC50: 100 to 200 nM for the first, less than 100 nM for the second.

`O=C(O)c1nn[nH]c1Oc1ccc(-c2ccc(Br)cc2)cc1` [Example 10, 5-((4′-bromo-[1,1′-biphenyl]-4-yl)oxy)-1H-1,2,3-triazole-4-carboxylic Acid] and `Cc1ccc(-c2ccc(Oc3[nH]nnc3C(=O)O)cc2)cc1` [Example 31, 5-((4′-methyl-[1,1′-biphenyl]-4-yl)oxy)-1H-1,2,3-triazole-4-carboxylic Acid] cannot be ordered by IC50: less than 100 nM for the first, less than 100 nM for the second.

`N#Cc1cccc(-c2ccc(Oc3[nH]nnc3C(=O)O)cc2)c1` [Example 20, 5-((3′-cyano-[1,1′-biphenyl]-4-yl)oxy)-1H-1,2,3-triazole-4-carboxylic Acid] and `COc1ccc(-c2ccc(Oc3[nH]nnc3C(=O)O)cc2)cc1` [Example 22, 5-((4′-methoxy-[1,1′-biphenyl]-4-yl)oxy)-1H-1,2,3-triazole-4-carboxylic Acid] fall in the same range of IC50: 100 to 200 nM for the first, 100 to 200 nM for the second.

Same assay, conditions: recombinant hGO, 40 mM glycolic acid, pH 7, read at 515 nm, 1 minute after initiation of Trinder reaction; read-out: % Inhibition

First: O=C(O)c1nn[nH]c1Oc1ccc(N2CCOCC2)cc1 [Example 1, 5-(4-morpholinophenoxy)-1H-1,2,3-triazole-4-carboxylic Acid]
Second: O=C(O)c1nn[nH]c1Oc1ccc(N2CCNCC2)cc1 [Example 2, 5-(4-(piperazin-1-yl)phenoxy)-1H-1,2,3-triazole-4-carboxylic Acid]
The IC50 of the first is higher: greater than 200 nM for the first, less than 100 nM for the second.

Compared with `CC(=O)N1CCN(c2ccc(Oc3[nH]nnc3C(=O)O)cc2)CC1` [Example 3, 5-(4-(4-acetylpiperazin-1-yl)phenoxy)-1H-1,2,3-triazole-4-carboxylic Acid], `O=C(O)c1nn[nH]c1Oc1ccc(Br)cc1` [Example 6, 5-(4-bromophenoxy)-1H-1,2,3-triazole-4-carboxylic Acid] is lower in IC50: greater than 200 nM for the first, less than 100 nM for the second.

First: O=C(O)c1nn[nH]c1Oc1ccc(-n2cccn2)cc1 [Example 4, 5-(4-(1H-pyrazol-1-yl)phenoxy)-1H-1,2,3-triazole-4-carboxylic Acid]
Second: O=C(O)c1nn[nH]c1Oc1ccc(F)cc1 [Example 9, 5-(4-fluorophenoxy)-1H-1,2,3-triazole-4-carboxylic Acid Sodium Salt]
The IC50 of the first is lower: less than 100 nM for the first, greater than 200 nM for the second.

First: O=C(O)c1nn[nH]c1Oc1ccccc1Br [Example 5, 5-(2-bromophenoxy)-1H-1,2,3-triazole-4-carboxylic Acid]
Second: O=C(O)c1nn[nH]c1Oc1cccc(Br)c1 [Example 7, 5-(3-bromophenoxy)-1H-1,2,3-triazole-4-carboxylic Acid]
The IC50 of the first is higher: greater than 200 nM for the first, 100 to 200 nM for the second. The second is the more potent here.

Compared with `O=C(O)c1nn[nH]c1Oc1ccc(-c2cn[nH]c2)cc1` [Example 11, 5-(4-(1H-pyrazol-4-yl)phenoxy)-1H-1,2,3-triazole-4-carboxylic Acid], `O=C(O)c1nn[nH]c1Oc1ccc(-c2ccn[nH]2)cc1` [Example 12, 5-(4-(1H-pyrazol-5-yl)phenoxy)-1H-1,2,3-triazole-4-carboxylic Acid] is lower in IC50: 100 to 200 nM for the first, less than 100 nM for the second. The second is the more potent here.

First: Cc1ncc(-c2ccc(Oc3[nH]nnc3C(=O)O)cc2)cn1 [Example 13, 5-(4-(2-methylpyrimidin-5-yl)phenoxy)-1H-1,2,3-triazole-4-carboxylic Acid]
Second: O=C(O)c1nn[nH]c1Oc1ccc(-c2ncco2)cc1 [Example 26, 5-(4-(oxazol-2-yl)phenoxy)-1H-1,2,3-triazole-4-carboxylic Acid]
The IC50 of the first is lower: less than 100 nM for the first, 100 to 200 nM for the second. The first is the more potent here.

First: O=C(O)c1nn[nH]c1Oc1ccc(-c2cccnc2)cc1 [Example 14, 5-(4-(pyridin-3-yl)phenoxy)-1H-1,2,3-triazole-4-carboxylic Acid]
Second: O=C(O)c1nn[nH]c1Oc1ccc(-c2ccncc2)cc1 [Example 19, 5-(4-(pyridin-4-yl)phenoxy)-1H-1,2,3-triazole-4-carboxylic Acid]
The IC50 of the first is higher: 100 to 200 nM for the first, less than 100 nM for the second.

Compared with `O=C(O)c1nn[nH]c1Oc1ccc(-c2ccc(-c3ccncc3)cc2)cc1` [Example 15, 5-((4′-(pyridin-4-yl)-[1,1′-biphenyl]-4-yl)oxy)-1H-1,2,3-triazole-4-carboxylic Acid], `O=C(O)c1nn[nH]c1Oc1ccc(-c2ccc(-c3ccc(OC(F)F)cc3)cc2)cc1` [Example 17, 5-((4″-(difluoromethoxy)-[1,1′:4′,1″-terphenyl]-4-yl)oxy)-1H-1,2,3-triazole-4-carboxylic Acid] is higher in IC50: less than 100 nM for the first, greater than 200 nM for the second. The first is the more potent here.

`O=C(O)c1nn[nH]c1Oc1ccc(-c2ccc(-c3cccc(OC(F)F)c3)cc2)cc1` [Example 16, 5-((3″-(difluoromethoxy)-[1,1′:4′,1″-terphenyl]-4-yl)oxy)-1H-1,2,3-triazole-4-carboxylic Acid] and `O=C(O)c1nn[nH]c1Oc1ccc(-c2cccc(OC(F)F)c2)cc1` [Example 40, 5-((3′-(difluoromethoxy)-[1,1′-biphenyl]-4-yl)oxy)-1H-1,2,3-triazole-4-carboxylic Acid] cannot be ordered by IC50: less than 100 nM for the first, less than 100 nM for the second.

Compared with `O=C(O)c1nn[nH]c1Oc1ccc(-c2cccnc2F)cc1` [Example 18, 5-(4-(2-fluoropyridin-3-yl)phenoxy)-1H-1,2,3-triazole-4-carboxylic Acid], `O=C(O)c1nn[nH]c1Oc1ccc(-c2cccc(F)c2F)cc1` [Example 34, 5-((2′,3′-difluoro-[1,1′-biphenyl]-4-yl)oxy)-1H-1,2,3-triazole-4-carboxylic Acid] is higher in IC50: less than 100 nM for the first, 100 to 200 nM for the second. The first is the more potent here.

First: O=C(O)c1nn[nH]c1Oc1ccc(-c2cnn(C3CCC3)c2)cc1 [Example 21, 5-(4-(1-cyclobutyl-1H-pyrazol-4-yl)phenoxy)-1H-1,2,3-triazole-4-carboxylic Acid]
Second: O=C(O)c1nn[nH]c1Oc1ccc(-c2ccoc2)cc1 [Example 41, 5-(4-(furan-3-yl)phenoxy)-1H-1,2,3-triazole-4-carboxylic Acid]
The IC50 of the first is lower: less than 100 nM for the first, 100 to 200 nM for the second. The first is the more potent here.

First: O=C(O)c1nn[nH]c1Oc1ccc(-c2ccsc2)cc1 [Example 23, 5-(4-(thiophen-3-yl)phenoxy)-1H-1,2,3-triazole-4-carboxylic Acid]
Second: O=C(O)c1nn[nH]c1Oc1ccc(-c2nccs2)cc1 [Example 25, 5-(4-(thiazol-2-yl)phenoxy)-1H-1,2,3-triazole-4-carboxylic Acid]
The IC50 of the first is lower: less than 100 nM for the first, 100 to 200 nM for the second.

First: O=C(O)c1nn[nH]c1Oc1ccc(-c2ccc3nccn3c2)cc1 [Example 27, 5-(4-(imidazo[1,2-a]pyridin-6-yl)phenoxy)-1H-1,2,3-triazole-4-carboxylic Acid]
Second: O=C(O)c1nn[nH]c1Oc1ccc(-c2ccc(F)c(Cl)c2)cc1 [Example 33, 5-((3′-chloro-4′-fluoro-[1,1′-biphenyl]-4-yl)oxy)-1H-1,2,3-triazole-4-carboxylic Acid]
The IC50 of the first is higher: 100 to 200 nM for the first, less than 100 nM for the second. The second is the more potent here.

`O=C(O)c1nn[nH]c1Oc1ccc(-c2ccccc2OC(F)F)cc1` [Example 28, 5-((2′-(difluoromethoxy)-[1,1′-biphenyl]-4-yl)oxy)-1H-1,2,3-triazole-4-carboxylic Acid] and `O=C(O)c1nn[nH]c1Oc1ccc(-c2ccc(OC(F)F)cc2)cc1` [Example 39, 5-((4′-(difluoromethoxy)-[1,1′-biphenyl]-4-yl)oxy)-1H-1,2,3-triazole-4-carboxylic Acid] fall in the same range of IC50: 100 to 200 nM for the first, 100 to 200 nM for the second.

`N#Cc1ccc(-c2ccc(Oc3nn[nH]c3C(=O)O)cc2)cc1` [Example 29, 5-((4′-cyano-[1,1′-biphenyl]-4-yl)oxy)-1H-1,2,3-triazole-4-carboxylic Acid] and `CC(C)(C)c1ccc(-c2ccc(Oc3[nH]nnc3C(=O)O)cc2)cc1` [Example 35, 5-((4′-(tert-butyl)-[1,1′-biphenyl]-4-yl)oxy)-1H-1,2,3-triazole-4-carboxylic Acid] fall in the same range of IC50: 100 to 200 nM for the first, 100 to 200 nM for the second.

`CC(C)c1ccc(-c2ccc(Oc3[nH]nnc3C(=O)O)cc2)cc1` [Example 32, 5-((4′-isopropyl-[1,1′-biphenyl]-4-yl)oxy)-1H-1,2,3-triazole-4-carboxylic Acid] and `O=C(O)c1nn[nH]c1Oc1ccc(-c2cnccn2)cc1` [Example 37, 5-(4-(pyrazin-2-yl)phenoxy)-1H-1,2,3-triazole-4-carboxylic Acid] cannot be ordered by IC50: less than 100 nM for the first, less than 100 nM for the second.

Source: patent publication US11401246B2, “Triazole glycolate oxidase inhibitors” (CANTERO THERAPEUTICS, INC., priority 2018, dated 2022)
